Key:
[1] = target: T1, CCKB receptor (Mus musculus, UniProt P56481); experiment: CCKB receptor radioligand binding assay in mouse cortical membranes ([125I]-CCK8S); settings: [125I]-CCK8S 200 pM, 150 min at 21±3°; for Ki: read-out: CCKB pKi (converted)
T1 construct: The cortex was dissected, weighed and homogenised in 40ml ice-cold buffer; tissue Charles River (supplier of the CD1 mice); host or cells: cerebral cortex membranes of male CD1 mice
T1 sequence (P56481 1-453): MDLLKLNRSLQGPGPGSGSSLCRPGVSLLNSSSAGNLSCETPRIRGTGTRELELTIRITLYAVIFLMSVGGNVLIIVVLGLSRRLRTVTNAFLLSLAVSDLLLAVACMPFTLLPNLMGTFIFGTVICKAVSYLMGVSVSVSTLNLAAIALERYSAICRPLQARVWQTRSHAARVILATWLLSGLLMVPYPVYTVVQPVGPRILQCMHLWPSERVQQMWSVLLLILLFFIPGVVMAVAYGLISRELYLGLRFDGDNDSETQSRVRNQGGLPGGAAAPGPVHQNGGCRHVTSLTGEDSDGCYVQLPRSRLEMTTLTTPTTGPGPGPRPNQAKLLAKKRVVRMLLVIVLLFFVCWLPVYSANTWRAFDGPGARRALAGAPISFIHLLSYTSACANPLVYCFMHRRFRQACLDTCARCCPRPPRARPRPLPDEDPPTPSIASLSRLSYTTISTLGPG
Method: The compounds of the examples were tested for binding at the CCKB receptor in mouse cortical membranes by means of a radioligand binding assay. The procedure was as follows:
The whole brains from male mice (CD1 22-25 g; Charles River) were removed and placed in ice-cold buffer (pH7.2 @ 21±3°) of the following composition (mM); 10 HEPES, 130 NaCl, 4.7 KCl, 5 MgCl2, 1 EDTA and containing 0.25g.^-1 bacitracin. The cortex was dissected, weighed and homogenised in 40ml ice-cold buffer using a Teflon-in-glass homogeniser. The homogenate was centrifuged at 39,800g for 20 min at 4°, the supernatant discarded and the pellet resuspended by homogenisation in fresh buffer. The homogenate was recentrifuged (39,800 g; 20 min @ 4°) and the final pellet was resuspended in HEPES buffer to give a tissue concentration of 2 mg.ml^-1 (original wet weight).
The membranes ([…]) were incubated for 150 min at 21±3° in a final volume of 0.5 ml with HEPES buffer containing [^125 I]-CCK8S (0.05 ml; 200 pM NEN 2200 Ci.mmol^-1) and competing compound. Total and non-specific binding of [^125 I]-CCK8S were defined using 0.05 ml of buffer and 0.05 ml of […] L-365,260, respectively. The assay was terminated by rapid filtration through pre-soaked Whatman GF/B filters using a Brandell Cell harvester. The filters were washed (3×3 ml) with ice-cold 50 mM Tris-HCl (pH7.4 @ 4° C.) and bound radioactivity determined by counting (1 min.) in a gamma-counter.

[2] = target: T2, CCKA (Cavia porcellus, UniProt Q63931); experiment: CCKA radioligand binding assay in guinea-pig pancreas membranes ([125I]-CCK8(S)); settings: PD134,308 present, 150 minutes at 21±3°; for Ki: read-out: CCKA pKi (converted)
T2 construct: The pancreatata were homogenised in 40 ml ice-cold HEPES buffer using a polytron; from tissue; host or cells: pancreas membranes of male Dunkin Hartley guinea-pigs
T2 sequence (Q63931 1-430): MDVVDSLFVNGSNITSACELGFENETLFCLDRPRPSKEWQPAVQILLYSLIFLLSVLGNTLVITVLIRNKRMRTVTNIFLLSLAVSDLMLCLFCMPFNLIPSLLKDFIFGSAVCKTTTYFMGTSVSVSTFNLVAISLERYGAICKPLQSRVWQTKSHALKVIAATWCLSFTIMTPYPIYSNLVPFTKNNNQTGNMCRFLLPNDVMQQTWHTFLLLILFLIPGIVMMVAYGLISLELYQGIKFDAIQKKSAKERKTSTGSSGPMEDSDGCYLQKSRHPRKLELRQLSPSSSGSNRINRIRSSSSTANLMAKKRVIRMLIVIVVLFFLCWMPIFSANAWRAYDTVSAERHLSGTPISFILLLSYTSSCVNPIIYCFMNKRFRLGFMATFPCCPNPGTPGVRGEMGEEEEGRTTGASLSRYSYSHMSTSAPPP
Method: The compounds of the examples were also tested in a CCKA as follows:
The pancreatata were removed from male guinea-pigs (200-300 g; Dunkin Hartley) and placed in ice-cold HEPES buffer (pH 7.2 @ 21 ±3). The pancreatata were homogenised in 40 ml ice-cold HEPES buffer using a polytron (Brinkmann, PT10, setting 10) 4×1 second. The homogenate was centrifuged at 39,800 g for 15 min at 4°. The supernatant was discarded and the pellet re-suspended using a Teflon-in-glass homogeniser in 20 volumes of fresh buffer and re-centrifuged as above.
The final pellet was re-suspended using a Teflon-in-glass homogeniser to a tissue concentration of 1 mg.ml^-1 (original wet weight), and filtered through 500 μm pore-size Nytex mesh.
The membranes (400 μl; containing 0.375 μM PD134,308) are incubated for 150 minutes at 21±3° in a final volume of 0.5 ml with HEPES buffer containing [^125 I]-CCK8 (S) (50 μl; […]) and competing compound. Total and non-specific binding of [^125 I]-CCK8 (S) are defined using 50 μl of buffer and 50 μl of 100 nM L-364,718 respectively. The assay is terminated by rapid filtration through pre-soaked Whatman GF/B filters using a Brandell Cell Harvester. The filters were washed (3×3 ml) with ice-cold 50 mM Tris HCl (pH 7.4 at 4°) and bound radioactivity is determined by counting (1 min) in a gamma counter.

Row | Molecule | CCKB pKi [1] | CCKA pKi [2] | Ki [1] [nM] | Ki [2] [nM]
1 | O=C(NCC12CC3CC(CC(C3)C1)C2)c1cc2[nH]ccc2cc1C(=O)N[C@@H](Cc1ccccc1)C(=O)Nc1cc(NC(=O)C(F)(F)F)cc(NC(=O)C(F)(F)F)c1 [Example 94, 5-(1S-(3,5-di-trifluoromethylcarbonylaminophenylamino-carbonyl)-2-phenylethylaminocarbonyl)-6-(1-adamantanemethylaminocarbonyl)-indole] | 6.7 | 5.0 | – | –
2 | O=Cc1cc(C=O)cc(NC(=O)[C@H](Cc2ccccc2)NC(=O)c2cc3[nH]cnc3cc2C(=O)NCC23CC4CC(CC(C4)C2)C3)c1 [Example 120, 5-(1S-(3,5-hydrogencarbonylphenylaminocarbonyl)-2-phenylethylaminocarbonyl)-6-(1-adamantanemethylaminocarbonyl)-benzimidazole] | – | – | 631 | 1000
3 | O=C(O)c1cc(NC(=O)[C@H](Cc2ccccc2)NC(=O)c2cc3[nH]c4ccccc4c3cc2C(=O)NCC23CC4CC(CC(C4)C2)C3)cc(C(=O)O)c1 [Example 52, 2-(1S-(3,5-dicarboxyphenylaminocarbonyl)-2-phenylethylaminocarbonyl)-3-(1-adamantanemethylaminocarbonyl)-carbazole] | – | – | 63.1 | 1260
4 | O=C(NCC12CC3CC(CC(C3)C1)C2)c1cc2nc[nH]c2cc1C(=O)N[C@@H](Cc1ccccc1)C(=O)Nc1cc(CO)cc(CO)c1 [Example 119, 5-(1S-(3,5-dihydroxymethylphenylaminocarbonyl)-2-phenylethylaminocarbonyl)-6-(1-adamantanemethylaminocarbonyl)-benzimidazole] | 6.2 | 5.6 | – | –
5 | 5-(1S-(trans3,4-dimethoxycarbonylpyrrolidinocarbonyl)-2-phenylethylaminocarbonyl)-6-(1-adamantanemethylaminocarbonyl)-indole and regioisomer with substituents at positions 5 and 6 reversed [Example 49] | 5.6 | 5.6 | – | –
6 | NS(=O)(=O)c1cc(NC(=O)[C@H](Cc2ccccc2)NC(=O)c2cc3cc[nH]c3cc2C(=O)NCC23CC4CC(CC(C4)C2)C3)cc(S(N)(=O)=O)c1 [Example 96, 5-(1S-(3,5-di-aminosulphonylphenylaminocarbonyl)-2-phenylethylaminocarbonyl)-6-(1-adamantanemethylaminocarbonyl)-indole] | 6.3 | 5.7 | – | –
7 | Cc1nc2cc(C(=O)NCC34CC5CC(CC(C5)C3)C4)c(C(=O)N[C@@H](Cc3ccccc3)C(=O)Nc3cc(C(=O)O)cc(C(=O)O)c3)cc2[nH]1 [Example 111, 5-(1S-(3,5-dicarboxyphenylaminocarbonyl)-2-phenylethylaminocarbonyl)-6-(1-adamantanemethylaminocarbonyl)-2-methylbenzimidazole] | – | – | 1580 | > 10000
8 | 1/2-(1-adamantanemethylaminocarbonyl)-naphthoic acid Regioisomer 2 [Example 22] | 5.9 | 5.4 | – | –
9 | O=C(NCC12CC3CC(CC(C3)C1)C2)c1cc2nc[nH]c2cc1C(=O)N[C@@H](Cc1ccccc1F)C(=O)Nc1cc(-c2nn[nH]n2)cc(-c2nn[nH]n2)c1 [Example 84, 5-(1S-(3,5-ditetrazolylphenylaminocarbonyl)-2-(2-fluorophenyl)ethylaminocarbonyl)-6-(1-adamantanemethylaminocarbonyl)-benzimidazole] | – | – | 2.51 | 631
10 | Cn1ccc2cc(C(=O)N[C@@H](Cc3ccccc3)C(=O)Nc3cc(C(=O)O)cc(C(=O)O)c3)c(C(=O)NCC34CC5CC(CC(C5)C3)C4)cc21 [Example 36, 5-(1S-(3,5-dicarboxyphenylaminocarbonyl)-2-phenylethylaminocarbonyl)-6-(1-adamantanemethylaminocarbonyl)-N-methyl-indole] | – | – | 0.398 | 3160
11 | NC(=O)c1cc(NC(=O)[C@H](Cc2ccccc2)NC(=O)c2cc3[nH]cnc3cc2C(=O)NCC23CC4CC(CC(C4)C2)C3)cc(C(N)=O)c1 [Example 117, 5-(1S-(3,5-diaminocarbonylphenylaminocarbonyl)-2-phenylethylaminocarbonyl)-6-(1-adamantanemethylaminocarbonyl)-benzimidazole] | – | – | 794 | 1580
12 | O=C(NCC12CC3CC(CC(C3)C1)C2)c1cc(Cl)c(Cl)cc1C(=O)N1CCC[C@@H]1C(=O)O [Example 19, (2R-carboxypyrrolidino-carbonyl)-2-(1-adamantanemethylaminocarbonylmethyl)-4,5-dichlorobenzene] | – | – | 2000 | 5010
13 | O=C(O)c1cccc2cccc(C(=O)NCC34CC5CC(CC(C5)C3)C4)c12 [Example 20, 1-(1-adamantanemethylaminocarbonyl)-8-naphthoic acid] | – | – | 10000 | 10000
14 | O=C(O)c1cc(NC(=O)[C@@H]2Cc3ccccc3CN2C(=O)c2cc3[nH]cnc3cc2C(=O)NCC23CC4CC(CC(C4)C2)C3)cc(C(=O)O)c1 [Example 129, 5-(3S-(3,5-dicarboxyphenylaminocarbonyl)-1,2,3,4-tetrahydroisoquinolino-2-carbonyl)-6-(1-adamantanemethylaminocarbonyl)-benzimidazole] | – | – | 200 | 7940
15 | O=C(NCC12CC3CC(CC(C3)C1)C2)c1cc2[nH]ccc2cc1C(=O)N[C@@H](Cc1ccccc1)C(=O)Nc1cccc(S(=O)(=O)NC(=O)C(F)(F)F)c1 [Example 99, 5-(1S-(3-trifluoroacetylaminosulphonylphenylaminocarbonyl)-2-phenylethylaminocarbonyl)-6-(1-adamantanemethylaminocarbonyl)-indole] | 8.4 | 5.4 | – | –
16 | O=C(NCC12CC3CC(CC(C3)C1)C2)c1cc2[nH]ccc2cc1C(=O)N[C@@H](Cc1ccccc1F)C(=O)Nc1cc(-c2nn[nH]n2)cc(-c2nn[nH]n2)c1 [Example 97, 5-(1S-(3,5-ditetrazolylphenylaminocarbonyl)-2-(2-fluorophenyl)ethylaminocarbonyl)-6-(1-adamantanemethylaminocarbonyl)-indole] | – | – | 0.794 | 501
